“And” between values parts separate entries of the source, which are not always exact repeats. Equal entries are not always repeated. Values belong to the compound of their own block, whether it stands above or below them.
Legend:
[1] = biological target: T1, 14-3-3β/CFTRpS753pS768 complex (Homo sapiens, UniProt P13569+P31946); test: Dose-response fluorescence polarization (FP) assay, compound titration; assay type: binding; details: for EC50: 14-3-3β 10 μM, labeled CFTRpS753pS768 100 nM, read-out: EC50; for FP signal: With 14-3-3
T1 construct: His6 (cleaved yes); made in house; peptide synthetic
In short: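 Compounds were titrated in two-fold dilutions against 10 μM 14-3-3β and FITC-CFTR pS753pS768 peptide (100 nM or 10 nM). Buffer: 10 mM HEPES pH 7.4, 150 mM NaCl, 0.1% Tween20, 1 mg/mL BSA. Polarization was read at ex 485/em 535 nm, and EC50 was derived from a four-parameter variable-slope fit.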

[2] = biological target: T1, 14-3-3β/CFTRpS753pS768 complex; test: FP assay, 14-3-3β titration at constant compound concentration (apparent KD); assay type: binding
[3] = CY compound (100 μM), 14-3-3β concentration 1.5625e-5 M
[4] = CY compound (100 μM), 14-3-3β concentration 3.125e-5 M
[5] = CY compound (100 μM), 14-3-3β concentration 6.25e-5 M
[6] = CY compound (100 μM), 14-3-3β concentration 0.000125 M
[7] = CY compound (100 μM), 14-3-3β concentration 0.00025 M
[8] = CY compound (100 μM), 14-3-3β concentration 0.0005 M
[9] = FC-A + CY compound, 14-3-3β concentration 1.5625e-5 M
[10] = FC-A + CY compound, 14-3-3β concentration 3.125e-5 M
[11] = FC-A + CY compound, 14-3-3β concentration 6.25e-5 M
[12] = FC-A + CY compound, 14-3-3β concentration 0.000125 M
[13] = FC-A + CY compound, 14-3-3β concentration 0.00025 M
[14] = FC-A + CY compound, 14-3-3β concentration 0.0005 M

T1 sequence (P31946 whole entry): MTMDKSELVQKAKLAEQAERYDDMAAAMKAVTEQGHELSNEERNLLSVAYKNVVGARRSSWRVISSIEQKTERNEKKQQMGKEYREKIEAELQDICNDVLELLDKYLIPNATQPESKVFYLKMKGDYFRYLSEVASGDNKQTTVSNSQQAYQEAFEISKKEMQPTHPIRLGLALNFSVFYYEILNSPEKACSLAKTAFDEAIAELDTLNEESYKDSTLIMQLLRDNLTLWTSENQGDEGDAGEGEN
T1 sequence (P13569 747-774 limits assumed): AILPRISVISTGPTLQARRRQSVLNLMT

EC50 [1]: 244 µM | FP signal ([1]; compound 476.8 pM): 4 | FP signal ([1]; compound 953.7 pM): 5 | FP signal ([1]; compound 1.90735e-9 M): 5 | FP signal ([1]; compound 3.8147e-9 M): 6 | FP signal ([1]; compound 7.6294e-9 M): 4 | FP signal ([1]; compound 1.52588e-8 M): 6 | FP signal ([1]; compound 3.05176e-8 M): 3 | FP signal ([1]; compound 6.10352e-8 M): 5 | FP signal ([1]; compound 1.2207e-7 M): 8 | FP signal ([1]; compound 2.44141e-7 M): 6 | FP signal ([1]; compound 4.88281e-7 M): 5 | FP signal ([1]; compound 9.76563e-7 M): 5 | FP signal ([1]; compound 1.95313e-6 M): 6 | FP signal ([1]; compound 3.90625e-6 M): 7 | FP signal ([1]; compound 7.8125e-6 M): 7 | FP signal ([1]; compound 1.5625e-5 M): 9 | FP signal ([1]; compound 3.125e-5 M): 18 | FP signal ([1]; compound 6.25e-5 M): 35 | FP signal ([1]; compound 0.000125 M): 83 | FP signal ([1]; compound 0.00025 M): 142 | FP signal ([1]; compound 0.0005 M): 193 | FP signal ([1]; compound 0.001 M): 240 | Fluorescence polarization signal, 14-3-3β titration ([2]; CY compound (100 μM), 14-3-3β concentration 3.05176e-8 M): 2.667 | Fluorescence polarization signal, 14-3-3β titration ([2]; CY compound (100 μM), 14-3-3β concentration 6.10352e-8 M): 5.667 and 3.667 and 4.667 | Fluorescence polarization signal, 14-3-3β titration ([2]; CY compound (100 μM), 14-3-3β concentration 2.44141e-7 M): 10.6667 and 8.667 | Fluorescence polarization signal, 14-3-3β titration ([2]; CY compound (100 μM), 14-3-3β concentration 4.88281e-7 M): 20.6667 and 17.6667 and 18.6667 | Fluorescence polarization signal, 14-3-3β titration ([2]; CY compound (100 μM), 14-3-3β concentration 9.76563e-7 M): 35.6667 and 31.6667 and 32.6667 | Fluorescence polarization signal, 14-3-3β titration ([2]; CY compound (100 μM), 14-3-3β concentration 1.95313e-6 M): 46.6667 and 44.6667 and 41.6667 | Fluorescence polarization signal, 14-3-3β titration ([2]; CY compound (100 μM), 14-3-3β concentration 3.90625e-6 M): 61.6667 and 57.6667 and 56.6667 | Fluorescence polarization signal, 14-3-3β titration ([2]; CY compound (100 μM), 14-3-3β concentration 7.8125e-6 M): 73.6667 and 74.6667 and 72.6667 | Fluorescence polarization signal, 14-3-3β titration [2, 3]: 84.6667 and 82.6667 and 83.6667 | Fluorescence polarization signal, 14-3-3β titration [2, 4]: 94.6667 and 91.6667 and 92.6667 | Fluorescence polarization signal, 14-3-3β titration [2, 5]: 107.667 and 108.667 | Fluorescence polarization signal, 14-3-3β titration [2, 6]: 115.667 and 120.667 and 113.667 | Fluorescence polarization signal, 14-3-3β titration [2, 7]: 128.667 and 129.667 | Fluorescence polarization signal, 14-3-3β titration [2, 8]: 146.667 and 147.667 | Fluorescence polarization signal, 14-3-3β titration ([2]; FC-A + CY compound, 14-3-3β concentration 7.62939e-9 M): 2 and 1 | Fluorescence polarization signal, 14-3-3β titration ([2]; FC-A + CY compound, 14-3-3β concentration 6.10352e-8 M): 9 and 13 and 12 | Fluorescence polarization signal, 14-3-3β titration ([2]; FC-A + CY compound, 14-3-3β concentration 1.2207e-7 M): 23 | Fluorescence polarization signal, 14-3-3β titration ([2]; FC-A + CY compound, 14-3-3β concentration 2.44141e-7 M): 39 and 43 and 40 | Fluorescence polarization signal, 14-3-3β titration ([2]; FC-A + CY compound, 14-3-3β concentration 4.88281e-7 M): 61 and 66 and 64 | Fluorescence polarization signal, 14-3-3β titration ([2]; FC-A + CY compound, 14-3-3β concentration 9.76563e-7 M): 90 and 91 | Fluorescence polarization signal, 14-3-3β titration ([2]; FC-A + CY compound, 14-3-3β concentration 1.95313e-6 M): 115 and 116 | Fluorescence polarization signal, 14-3-3β titration ([2]; FC-A + CY compound, 14-3-3β concentration 3.90625e-6 M): 131 and 135 and 137 | Fluorescence polarization signal, 14-3-3β titration ([2]; FC-A + CY compound, 14-3-3β concentration 7.8125e-6 M): 145 and 142 and 147 | Fluorescence polarization signal, 14-3-3β titration [2, 9]: 154 and 157 | Fluorescence polarization signal, 14-3-3β titration [2, 10]: 158 and 155 and 159 | Fluorescence polarization signal, 14-3-3β titration [2, 11]: 165 and 162 | Fluorescence polarization signal, 14-3-3β titration [2, 12]: 160 and 162 and 164 | Fluorescence polarization signal, 14-3-3β titration [2, 13]: 164 and 166 and 167 | Fluorescence polarization signal, 14-3-3β titration [2, 14]: 172 and 174 and 170
Structure (SMILES): CN1CC(=O)NC(CCCNC(=N)N)C(=O)NC(CCC(N)=O)C(=O)NC(CCCNC(=N)N)C(=O)NCc2ccccc2-c2cccc(c2)C1 (stereo not drawn) [CY007491]

Structure (SMILES): N=C(N)NCCCC1NC(=O)C(CCC(N)=O)NC(=O)C(CCCNC(=N)N)NC(=O)C2CCCN2Cc2cccc(c2)-c2ccccc2CNC1=O (stereo not drawn) [CY007458]
EC50 [1]: 151 µM | FP signal ([1]; compound 476.8 pM): 6 | FP signal ([1]; compound 953.7 pM): 5 | FP signal ([1]; compound 1.90735e-9 M): 4 | FP signal ([1]; compound 3.8147e-9 M): 5 | FP signal ([1]; compound 7.6294e-9 M): 7 | FP signal ([1]; compound 1.52588e-8 M): 4 | FP signal ([1]; compound 3.05176e-8 M): 6 | FP signal ([1]; compound 6.10352e-8 M): 5 | FP signal ([1]; compound 1.2207e-7 M): 4 | FP signal ([1]; compound 2.44141e-7 M): 5 | FP signal ([1]; compound 4.88281e-7 M): 6 | FP signal ([1]; compound 9.76563e-7 M): 6 | FP signal ([1]; compound 1.95313e-6 M): 5 | FP signal ([1]; compound 3.90625e-6 M): 8 | FP signal ([1]; compound 7.8125e-6 M): 11 | FP signal ([1]; compound 1.5625e-5 M): 15 | FP signal ([1]; compound 3.125e-5 M): 33 | FP signal ([1]; compound 6.25e-5 M): 65 | FP signal ([1]; compound 0.000125 M): 124 | FP signal ([1]; compound 0.00025 M): 179 | FP signal ([1]; compound 0.0005 M): 221 | FP signal ([1]; compound 0.001 M): 252 | Fluorescence polarization signal, 14-3-3β titration [2, 3]: 76.6667 | Fluorescence polarization signal, 14-3-3β titration [2, 4]: 83.6667 and 85.6667 | Fluorescence polarization signal, 14-3-3β titration [2, 5]: 102.667 and 98.6667 and 101.667 | Fluorescence polarization signal, 14-3-3β titration [2, 6]: 115.667 and 111.667 and 118.667 | Fluorescence polarization signal, 14-3-3β titration [2, 7]: 131.667 and 136.667 and 132.667 | Fluorescence polarization signal, 14-3-3β titration [2, 8]: 153.667 and 151.667 and 152.667 | Fluorescence polarization signal, 14-3-3β titration [2, 9]: 140.333 and 143.333 and 144.333 | Fluorescence polarization signal, 14-3-3β titration [2, 10]: 147.333 and 148.333 and 150.333 | Fluorescence polarization signal, 14-3-3β titration [2, 11]: 156.333 | Fluorescence polarization signal, 14-3-3β titration [2, 12]: 159.333 and 161.333 and 160.333 | Fluorescence polarization signal, 14-3-3β titration [2, 13]: 164.333 and 167.333 | Fluorescence polarization signal, 14-3-3β titration [2, 14]: 175.333 and 176.333 and 172.333
